Key:
Type in all cases: cell-based, human
Conditions in all cases: individual 17mer 20 μg/mL, blood 6 days after commencing oral gluten challenge
[1] = system: whole blood from subjects with T1D and Celiac disease; assay: Whole blood cytokine release assay, IL-2 (MAGPIX), Example 1
[2] = system: whole blood from subjects with T1D and Celiac disease; assay: Whole blood cytokine release assay, IFN-γ (MAGPIX), Example 1
[3] = system: whole blood from subjects with T1D and Celiac disease; assay: Whole blood cytokine release assay, IP-10 (MAGPIX), Example 1

| Sequence | IL-2 fold-change ([1]; Subject 1) | IL-2 fold-change (preproinsulin peptides) ([1]; Subject 1) | IL-2 fold-change ([1]; Subject 2) | IL-2 fold-change (preproinsulin peptides) ([1]; Subject 2) | IL-2 fold-change ([1]; Subject 6) | IL-2 fold-change (preproinsulin peptides) ([1]; Subject 6) | IL-2 fold-change ([1]; Subject 7) | IL-2 fold-change (preproinsulin peptides) ([1]; Subject 7) | IFN-g fold-change ([2]; Subject 1) | IFN-g fold-change (preproinsulin peptides) ([2]; Subject 1) | IFN-g fold-change ([2]; Subject 2) | IFN-g fold-change (preproinsulin peptides) ([2]; Subject 2) | IFN-g fold-change ([2]; Subject 6) | IFN-g fold-change (preproinsulin peptides) ([2]; Subject 6) | IFN-g fold-change ([2]; Subject 7) | IFN-g fold-change (preproinsulin peptides) ([2]; Subject 7) | IP-10 fold-change ([3]; Subject 1) | IP-10 fold-change (preproinsulin peptides) ([3]; Subject 1) | IP-10 fold-change ([3]; Subject 2) | IP-10 fold-change (preproinsulin peptides) ([3]; Subject 2) | further results |
| --- | --- | --- | --- | --- | --- | --- | --- | --- | --- | --- | --- | --- | --- | --- | --- | --- | --- | --- | --- | --- | --- |
| REAEDLQVGQVELGGGP [SEQ ID NO: 48] | 1.00 | 1.00 fold | 1.00 | 1.00 fold | 1.12 | 1.12 fold | 0.50 | 0.50 fold | 0.75 | 0.75 fold | 0.88 | 0.88 fold | 1.07 | 1.07 fold | 0.67 | 0.67 fold | 2.00 | 2.00 fold | 1.67 | 1.67 fold | IP-10 fold-change ([3]; Subject 6): 1.13; IP-10 fold-change (preproinsulin peptides) ([3]; Subject 6): 1.13 fold; IP-10 fold-change ([3]; Subject 7): 2.48; IP-10 fold-change (preproinsulin peptides) ([3]; Subject 7): 2.48 fold; subjects with elevated whole blood IP-10 release (2-fold greater than medium alone) ([3]; four subjects): immunogenic |
| RGFFYTPKTRREAEVGE [SEQ ID NO: 57] | 1.00 | 1.00 fold | 1.00 | 1.00 fold | 1.00 | 1.00 fold | 2.59 | 2.59 fold | 1.06 | 1.06 fold | 0.82 | 0.82 fold | 1.06 | 1.06 fold | 1.09 | 1.09 fold | 0.92 | 0.92 fold | 0.91 | 0.91 fold | IP-10 fold-change ([3]; Subject 6): 0.90; IP-10 fold-change (preproinsulin peptides) ([3]; Subject 6): 0.90 fold; IP-10 fold-change ([3]; Subject 7): 0.75; IP-10 fold-change (preproinsulin peptides) ([3]; Subject 7): 0.75 fold |
| RREAEDLEGSLQPLALE [SEQ ID NO: 49] | 1.00 | 1.00 fold | 1.00 | 1.00 fold | 1.08 | 1.08 fold | 0.42 | 0.42 fold | 0.99 | 0.99 fold | 1.27 | 1.27 fold | 1.00 | 1.00 fold | 0.77 | 0.77 fold | 1.36 | 1.36 fold | 2.58 | 2.58 fold | IP-10 fold-change ([3]; Subject 6): 3.15; IP-10 fold-change (preproinsulin peptides) ([3]; Subject 6): 3.15 fold; IP-10 fold-change ([3]; Subject 7): 0.99; IP-10 fold-change (preproinsulin peptides) ([3]; Subject 7): 0.99 fold |

Reference: patent US10473647B1, “Peptides for use in treatment and diagnosis of type 1 diabetes” (ImmusanT, Inc., priority 2014, dated 2019)
